Measured values as given in ChEMBL document CHEMBL4261649, “Design and synthesis of boron containing monosaccharides by the hydroboration of d-glucal for use in boron neutron capture therapy (BNCT)” (Bioorg Med Chem, 2018).
Active and inactive are the calls of the source. The calls are words filed in the database; no cut-off is given here.

Experiments:
[1] = Drug uptake in human HeLaS3 cells at 30 uM after 7 to 24 hrs under normoxic condition by ICP-MS analysis; type: ADME, cell-based; conditions: hela s3, 30 µM
[2] = Drug uptake in human A549 cells at 30 uM after 7 to 24 hrs under normoxic condition by ICP-MS analysis; type: ADME, cell-based; conditions: a549, 30 µM
[3] = system: HeLa S3; experiment: Cytotoxicity against human HeLaS3 cells assessed as reduction in cell viability up to 1600 uM after 16 hrs by MTT assay; type: functional, cell-based
[4] = system: A549; experiment: Cytotoxicity against human A549 cells assessed as reduction in cell viability up to 1600 uM after 16 hrs by MTT assay; type: functional, cell-based
[5] = (§1) Substrate activity at hexokinase (unknown origin) assessed as compound phosphorylation after 1 days in presence of ATP by 31-P NMR spectroscopic analysis; type: ADME; conditions: human, 24 h
[6] = Drug uptake in human HeLaS3 cells at 30 uM after 7 to 24 hrs under hypoxic condition by ICP-MS analysis; type: ADME, cell-based; conditions: hela s3, 30 µM
[7] = Drug uptake in human HeLaS3 cells assessed per cell at 30 uM after 7 hrs under hypoxic condition by ICP-MS analysis; type: ADME, cell-based; conditions: hela s3, 7 h
[8] = Drug uptake in human HeLaS3 cells assessed per cell at 30 uM after 7 hrs under normoxic condition by ICP-MS analysis; type: ADME, cell-based; conditions: hela s3, 7 h
[9] = Drug uptake in human A549 cells at 30 uM after 7 to 24 hrs under hypoxic condition by ICP-MS analysis; type: ADME, cell-based; conditions: a549, 30 µM
[10] = system: hexokinase; experiment: Substrate activity at hexokinase (unknown origin) assessed as compound phosphorylation after 5 days in presence of ATP by 31-P NMR spectroscopic analysis; type: ADME; conditions: human, hexokinase (isolated enzyme); read-out: Activity
[11] = system: hexokinase; experiment: as §1; type: ADME; conditions: human, hexokinase (isolated enzyme); read-out: Activity

SMILES | Drug uptake [1] | Drug uptake [2] | Activity [3] | Activity [4] | Activity [5] | Drug uptake [6] | Drug uptake [7] | Drug uptake [8] | Drug uptake [9] | metabolised at 120 h [10] | metabolised at 24 h [11]
OC[C@H]1OC[C@H](B2OCCCO2)[C@@H](O)[C@@H]1O | Active | Active | Active | Active | – | – | – | – | – | – | –
OC[C@H]1OC[C@H](B(O)O)[C@@H](O)[C@@H]1O | Active | Active | Active | Active | Active | Active | 0.4 fmol | 0.3 fmol | Active | – | –
CC1(C)OB([C@H]2CO[C@H](CO)[C@@H](O)[C@@H]2O)OC1(C)C | Active | Active | Active | Active | Not Active | Active | – | – | Active | – | –
O=P(O)(O)OC[C@H]1OC(O)[C@H](O)[C@@H](O)[C@@H]1O (stereo partly drawn) | – | – | – | – | Active | – | – | – | – | 19% | –
c1ccc(B2OC3(CCCCC3)C3(CCCCC3)O2)c(CN2CCNCCNCCNCC2)c1 | Active | Active | – | – | – | Active | – | – | Active | – | –
OC[C@H]1OC(O)[C@H](O)[C@@H](O)[C@@H]1O (stereo partly drawn) [DEXTROSE] | – | – | – | – | – | – | – | – | – | – | 97%
N[C@@H](Cc1ccc(B(O)O)cc1)C(=O)O | Active | Active | Active | Active | – | Active | – | – | Active | – | –
OC[C@H]1OC[C@H](B2OC3(CCCCC3)C3(CCCCC3)O2)[C@@H](O)[C@@H]1O | Active | Active | Active | Active | – | Active | – | – | Active | – | –
CC1CC(C)OB([C@H]2CO[C@H](CO)[C@@H](O)[C@@H]2O)O1 (stereo partly drawn) | Active | Active | Active | Active | – | – | – | – | – | – | –
